Measured values: US12391737B2, “Soluble NPY2 receptor agonists” (Boehringer Ingelheim International GmbH, priority 2020, dated 2025)
pKi: −log10 of the molar value. *1 amine or outer side, *2 acyl side, *3 side chain or, on linkers, in order; H or OH if unused. Where a SMILES comes first, the peptide text is derived from it. Side-chain parts run from the residue outwards. The star is where a group is joined. C18 diacid = O=C(O)CCCCCCCCCCCCCCCCC(=O)*; γGlu = O=C(O)[C@H](CCC(=O)[*:2])N[*:1]; Isovaleryl = CC(C)CC(=O)*; Ahx = NCCCCCC(=O)O

Legend:
[1] = molecular target: T1, Human Neuropeptide Y2 Receptor (Homo sapiens, UniProt P49146); assay: Radioligand binding competition assay (RLB); details: Table 3, 125I-PYY(1-36) competition; read-out: Ki
T1 construct: purchased CHEMICON HTS066M
T1 sequence (P49146 1-381): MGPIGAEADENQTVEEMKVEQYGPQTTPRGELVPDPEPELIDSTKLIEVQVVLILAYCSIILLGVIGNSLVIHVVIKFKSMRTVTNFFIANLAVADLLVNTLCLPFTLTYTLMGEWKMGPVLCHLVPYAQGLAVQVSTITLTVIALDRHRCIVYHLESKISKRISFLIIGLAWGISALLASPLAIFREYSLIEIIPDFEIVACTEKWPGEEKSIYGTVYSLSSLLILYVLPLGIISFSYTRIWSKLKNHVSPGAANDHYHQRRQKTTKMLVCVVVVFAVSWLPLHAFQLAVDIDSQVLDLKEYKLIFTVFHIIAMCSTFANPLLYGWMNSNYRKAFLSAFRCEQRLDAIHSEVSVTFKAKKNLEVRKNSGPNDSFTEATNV
Outline: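 Receptor membranes, 0.5 μg/well; buffer 50 mM HEPES/5 mM MgCl2/1 mM CaCl2/0.2% ovalbumin, pH 7.4; 2 h RT, shaking. GF/C filtration, cold HEPES/500 mM NaCl wash, scintillation count. IC50 by nonlinear regression.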

[2] = Solubility determination; details: for Sol6: pH 6; for Sol7: pH 7
Outline: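 Solubility is derived from the ratio of reversed-phase peak areas, filtered sample over a control dissolved at 1 mg/ml in 50% acetonitrile. Peptides are agitated for 2 hours at room temperature in 0.1 M sodium diphosphate at pH 6.4 or 7.0, aiming at 10 mg/ml.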

SMILES: CC(C)CC(=O)N[C@@H](C)C(=O)N1CCC[C@H]1C(=O)N[C@@H](CCC(=O)O)C(=O)N[C@@H](CCCCNC(=O)CCCCCNC(=O)CC[C@H](NC(=O)CCCCCCCCCCCCCCCCC(=O)O)C(=O)O)C(=O)N1CCC[C@H]1C(=O)N[C@@H](CCC(=O)O)C(=O)N[C@@H](CCC(=O)O)C(=O)N[C@@H](CC(=O)O)C(=O)N[C@@H](C)C(=O)N[C@@H](CCC(=O)O)C(=O)N1CCC[C@H]1C(=O)N[C@@H](CCC(=O)O)C(=O)N[C@@H](CCC(=O)O)C(=O)N[C@@H](CO)C(=O)N[C@@H](CCC(N)=O)C(=O)N[C@@H](CCCNC(=N)N)C(=O)N[C@@H](Cc1ccc(O)cc1)C(=O)N[C@@H](Cc1ccc(O)cc1)C(=O)N[C@H](C(=O)N[C@@H](CO)C(=O)N[C@@H](CC(C)C)C(=O)N[C@@H](CCCNC(=N)N)C(=O)N[C@@H](Cc1c[nH]cn1)C(=O)N[C@@H](Cc1ccc(O)cc1)C(=O)N[C@@H](Cc1ccc(O)cc1)C(=O)N[C@@H](CC(N)=O)C(=O)N[C@@H](Cc1c[nH]c2ccccc12)C(=O)N[C@@H](CC(C)C)C(=O)N[C@H](C(=O)N[C@@H](CCCNC(=N)N)C(=O)N[C@@H](CCC(N)=O)C(=O)N[C@@H](CCCNC(=N)N)C(=O)N[C@@H](Cc1ccc(O)cc1)C(N)=O)[C@@H](C)O)C(C)C [Compound 27, N{alpha-4}-(3-methylbutanoyl)-N{epsilon-7}-(6-[(4S)-4-carboxy-4-(17-carboxyheptadecanamido)butanamido]hexanoyl)[4A,7K,9E,13E,17S,18Q,22V,28Y,30W,31L]-hPYY(4-36)]
- pKi [1]: 7.98
- Sol6 [2]: 9.1 mg/mL
- Sol7 [2]: 9.4 mg/mL

SMILES: CC[C@H](C)[C@H](NC(=O)[C@H](CCC(=O)O)NC(=O)[C@H](CCC(=O)O)NC(=O)[C@@H]1CCCN1C(=O)[C@@H](NC(=O)[C@H](C)NC(=O)[C@H](CC(=O)O)NC(=O)[C@H](CCC(=O)O)NC(=O)[C@@H]1CCCN1C(=O)[C@@H]1CCCN1C(=O)[C@H](CCCCNC(=O)CCCCCNC(=O)CC[C@H](NC(=O)CCCCCCCCCCCCCCCCC(=O)O)C(=O)O)NC(=O)[C@H](CCC(=O)O)NC(=O)[C@@H]1CCCN1C(=O)[C@H](C)NC(=O)CC(C)C)[C@@H](C)O)C(=O)N[C@@H](CCC(N)=O)C(=O)N[C@@H](CCCNC(=N)N)C(=O)N[C@@H](Cc1ccc(O)cc1)C(=O)N[C@@H](Cc1ccc(O)cc1)C(=O)N[C@H](C(=O)N[C@@H](CO)C(=O)N[C@@H](CC(C)C)C(=O)N[C@@H](CCCNC(=N)N)C(=O)N[C@@H](Cc1c[nH]cn1)C(=O)N[C@@H](Cc1ccc(O)cc1)C(=O)N[C@@H](Cc1ccc(O)cc1)C(=O)N[C@@H](CC(N)=O)C(=O)N[C@@H](Cc1c[nH]c2ccccc12)C(=O)N[C@@H](CC(C)C)C(=O)N[C@H](C(=O)N[C@@H](CCCNC(=N)N)C(=O)N[C@@H](CCC(N)=O)C(=O)N[C@@H](CCCNC(=N)N)C(=O)N[C@@H](Cc1ccc(O)cc1)C(N)=O)[C@@H](C)O)C(C)C [Compound 28, N{alpha-4}-(3-methylbutanoyl)-N{epsilon-7}-(6-[(4S)-4-carboxy-4-(17-carboxyheptadecanamido)butanamido]hexanoyl)[4A,7K,9P,13T,17I,18Q,22V,28Y,30W,31L]-hPYY(4-36)]
- pKi [1]: 9.31
- Sol6 [2]: >10.0 mg/mL
- Sol7 [2]: >10.0 mg/mL

SMILES: CC(C)CC(=O)N[C@@H](C)C(=O)N1CCC[C@H]1C(=O)N[C@@H](CCC(=O)O)C(=O)N[C@@H](CCCCNC(=O)CCCCCNC(=O)CC[C@H](NC(=O)CCCCCCCCCCCCCCCCC(=O)O)C(=O)O)C(=O)N1CCC[C@H]1C(=O)N[C@@H](CCC(=O)O)C(=O)N[C@@H](C)C(=O)N[C@@H](CC(=O)O)C(=O)N[C@@H](CO)C(=O)N[C@@H](CO)C(=O)N1CCC[C@H]1C(=O)N[C@@H](CCC(=O)O)C(=O)N[C@@H](CCC(=O)O)C(=O)N[C@@H](CC(C)C)C(=O)N[C@@H](CCC(N)=O)C(=O)N[C@@H](CCCNC(=N)N)C(=O)N[C@@H](Cc1ccc(O)cc1)C(=O)N[C@@H](Cc1ccc(O)cc1)C(=O)N[C@H](C(=O)N[C@@H](CO)C(=O)N[C@@H](CC(C)C)C(=O)N[C@@H](CCCNC(=N)N)C(=O)N[C@@H](Cc1c[nH]cn1)C(=O)N[C@@H](Cc1ccc(O)cc1)C(=O)N[C@@H](Cc1ccc(O)cc1)C(=O)N[C@@H](CC(N)=O)C(=O)N[C@@H](Cc1c[nH]c2ccccc12)C(=O)N[C@@H](CC(C)C)C(=O)N[C@H](C(=O)N[C@@H](CCCNC(=N)N)C(=O)N[C@@H](CCC(N)=O)C(=O)N[C@@H](CCCNC(=N)N)C(=O)N[C@@H](Cc1ccc(O)cc1)C(N)=O)[C@@H](C)O)C(C)C [Compound 29, N{alpha-4}-(3-methylbutanoyl)-N{epsilon-7}-(6-[(4S)-4-carboxy-4-(17-carboxyheptadecanamido)butanamido]hexanoyl)[4A,7K,9E,10A,12S,18Q,22V,28Y,30W,31L]-hPYY(4-36)] (Isovaleryl-APEK([Ahx-γGlu-C18 diacid])PEADSSPEELQRYYVSLRHYYNWLTRQRY-NH2)
- pKi [1]: 8.87
- Sol6 [2]: 9.9 mg/mL
- Sol7 [2]: 10.0 mg/mL

SMILES: CC(C)CC(=O)N[C@@H](C)C(=O)N1CCC[C@H]1C(=O)N[C@@H](CCC(=O)O)C(=O)N[C@@H](CCCCNC(=O)CCCCCNC(=O)CC[C@H](NC(=O)CCCCCCCCCCCCCCCCC(=O)O)C(=O)O)C(=O)N1CCC[C@H]1C(=O)N1CCC[C@H]1C(=O)N[C@@H](C)C(=O)N[C@@H](CC(=O)O)C(=O)N[C@@H](C)C(=O)N[C@H](C(=O)N1CCC[C@H]1C(=O)N[C@@H](CCC(=O)O)C(=O)N[C@@H](CCC(=O)O)C(=O)N[C@@H](CC(C)C)C(=O)N[C@@H](CCC(N)=O)C(=O)N[C@@H](CCCNC(=N)N)C(=O)N[C@@H](Cc1ccc(O)cc1)C(=O)N[C@@H](Cc1ccc(O)cc1)C(=O)N[C@H](C(=O)N[C@@H](CO)C(=O)N[C@@H](CC(C)C)C(=O)N[C@@H](CCCNC(=N)N)C(=O)N[C@@H](Cc1c[nH]cn1)C(=O)N[C@@H](Cc1ccc(O)cc1)C(=O)N[C@@H](Cc1ccc(O)cc1)C(=O)N[C@@H](CC(N)=O)C(=O)N[C@@H](Cc1c[nH]c2ccccc12)C(=O)N[C@@H](CC(C)C)C(=O)N[C@H](C(=O)N[C@@H](CCCNC(=N)N)C(=O)N[C@@H](CCC(N)=O)C(=O)N[C@@H](CCCNC(=N)N)C(=O)N[C@@H](Cc1ccc(O)cc1)C(N)=O)[C@@H](C)O)C(C)C)[C@@H](C)O [Compound 30, N{alpha-4}-(3-methylbutanoyl)-N{epsilon-7}-(6-[(4S)-4-carboxy-4-(17-carboxyheptadecanamido)butanamido]hexanoyl)[4A,7K,9P,10A,13T,18Q,22V,28Y,30W,31L]-hPYY(4-36)] (Isovaleryl-APEK([Ahx-γGlu-C18 diacid])PPADATPEELQRYYVSLRHYYNWLTRQRY-NH2)
- pKi [1]: 9.52
- Sol6 [2]: 0.1 mg/mL
- Sol7 [2]: 9.4 mg/mL

SMILES: CC(C)CC(=O)N[C@@H](C)C(=O)N1CCC[C@H]1C(=O)N[C@@H](CCC(=O)O)C(=O)N[C@@H](CCCCNC(=O)CCCCCNC(=O)CC[C@H](NC(=O)CCCCCCCCCCCCCCCCC(=O)O)C(=O)O)C(=O)N1CCC[C@H]1C(=O)N[C@@H](CCC(=O)O)C(=O)N[C@@H](CCC(=O)O)C(=O)N[C@@H](CC(=O)O)C(=O)N[C@@H](C)C(=O)N[C@H](C(=O)N1CCC[C@H]1C(=O)N[C@@H](CCC(=O)O)C(=O)N[C@@H](CCC(=O)O)C(=O)N[C@@H](CC(C)C)C(=O)N[C@@H](CCC(N)=O)C(=O)N1CCC[C@H]1C(=O)N[C@@H](Cc1ccc(O)cc1)C(=O)N[C@@H](Cc1ccc(O)cc1)C(=O)N[C@H](C(=O)N[C@@H](CO)C(=O)N[C@@H](CC(C)C)C(=O)N[C@@H](CCCNC(=N)N)C(=O)N[C@@H](Cc1c[nH]cn1)C(=O)N[C@@H](Cc1ccc(O)cc1)C(=O)N[C@@H](Cc1ccc(O)cc1)C(=O)N[C@@H](CC(N)=O)C(=O)N[C@@H](Cc1c[nH]c2ccccc12)C(=O)N[C@@H](CC(C)C)C(=O)N[C@H](C(=O)N[C@@H](CCCNC(=N)N)C(=O)N[C@@H](CCC(N)=O)C(=O)N[C@@H](CCCNC(=N)N)C(=O)N[C@@H](Cc1ccc(O)cc1)C(N)=O)[C@@H](C)O)C(C)C)[C@@H](C)O [Compound 31, N{alpha-4}-(3-methylbutanoyl)-N{epsilon-7}-(6-[(4S)-4-carboxy-4-(17-carboxyheptadecanamido)butanamido]hexanoyl)[4A,7K,9E,13T,18Q,19P,22V,28Y,30W,31L]-hPYY(4-36)]
- pKi [1]: 7.46
- Sol6 [2]: >10.0 mg/mL
- Sol7 [2]: 10.0 mg/mL
